The values below come from ChEMBL document CHEMBL4837225, “Water-soluble derivatives of evodiamine: Discovery of evodiamine-10-phosphate as an orally active antitumor lead compound” (Eur J Med Chem, 2021).

Molecules are shown by their SMILES. Values after ≈ are worked out from the molar mass of the structure shown. Active and inactive are the calls of the source. The rule behind the calls is not given here.

In data set [1] the target is T1, DNA topoisomerase 1 (Homo sapiens) (UniProt P11387).
T1 sequence (whole entry): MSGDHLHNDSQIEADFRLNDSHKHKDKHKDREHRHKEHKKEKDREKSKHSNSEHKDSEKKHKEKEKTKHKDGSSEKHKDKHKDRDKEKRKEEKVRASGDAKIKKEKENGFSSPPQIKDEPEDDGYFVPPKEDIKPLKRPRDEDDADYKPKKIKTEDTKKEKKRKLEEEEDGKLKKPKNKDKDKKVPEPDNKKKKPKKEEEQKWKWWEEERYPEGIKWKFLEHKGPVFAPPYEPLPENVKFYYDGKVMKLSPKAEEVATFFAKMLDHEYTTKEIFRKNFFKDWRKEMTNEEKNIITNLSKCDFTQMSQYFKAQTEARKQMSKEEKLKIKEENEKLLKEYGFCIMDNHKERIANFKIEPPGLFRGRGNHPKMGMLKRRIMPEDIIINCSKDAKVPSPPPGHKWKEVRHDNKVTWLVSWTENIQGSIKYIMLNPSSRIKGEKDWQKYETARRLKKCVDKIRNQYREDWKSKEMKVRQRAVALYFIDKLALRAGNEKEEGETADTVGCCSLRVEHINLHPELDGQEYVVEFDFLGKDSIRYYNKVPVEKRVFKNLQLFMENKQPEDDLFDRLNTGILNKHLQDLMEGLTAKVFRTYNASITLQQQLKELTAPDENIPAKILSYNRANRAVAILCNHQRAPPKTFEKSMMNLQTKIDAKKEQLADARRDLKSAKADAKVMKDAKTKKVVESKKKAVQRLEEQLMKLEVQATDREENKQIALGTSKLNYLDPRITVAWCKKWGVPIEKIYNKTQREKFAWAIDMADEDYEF
As to the kind of experiment: Inhibition of TOP1 (unknown origin) assessed as decrease in relaxation of supercoiled DNA using pBR322 plasmid DNA as substrate at 100 uM by ethidium bromide staining based gel electrophoresis.

Another data set deals with MDA-MB-231. As to the kind of experiment: Antiproliferative activity against human MDA-MB-231 cells assessed as inhibition of cell proliferation incubated for 72 hrs by CCK8 assay. Type of data set: functional, cell-based. As to conditions: MDA-MB-231, 72 h. On the technique in general: Formazan colour is commonly taken as a measure of viable cells.
Data set [2] in a line: Solubility of the compound in double distilled water. The format is physicochemical.
Another data set deals with A549. As to the kind of experiment: Antiproliferative activity against human A549 cells assessed as inhibition of cell proliferation incubated for 72 hrs by CCK8 assay. The format is functional, cell-based. As to conditions: A549, 72 h.
In data set [3] the target is DNA topoisomerase 2-alpha (Homo sapiens) (UniProt P11388). As to the kind of experiment: Inhibition of TOP2 (unknown origin) assessed as formation of short DNA fragments using supercoiled plasmid DNA at 100 uM by ethidium bromide staining based gel.
For data set [4], the system named is HCT-116. As to the kind of experiment: Antiproliferative activity against human HCT-116 cells assessed as inhibition of cell proliferation incubated for 72 hrs by CCK8 assay. Type of data set: functional, cell-based. As to conditions: HCT-116, 72 h.
The subject of data set [5] is HCT-116. As to the kind of experiment: Antitumor activity against human HCT-116 cells xenografted in BALB/c nude mouse assessed as inhibition of tumor growth at 16 mg/kg, ip QD administered for 21 days measured by caliper. The format is functional, organism-based. Particulars: time 21.0 day.
Data set [6] in a line: Toxicity in BALB/c nude nude mouse xenografted with human HCT-116 cells assessed as decrease in body weight at 0.5 mg/kg/day, ip QD administered for 16 consecutive days. Type of data set: organism-based. As to conditions: in vivo, 384 h, time 16 day. In general terms: In xenograft studies the graft and the host belong to different species.
The test system of data set [7] is HCT-116. Briefly: Antitumor activity against human HCT-116 cells xenografted in BALB/c nude mouse assessed as inhibition of tumor growth at 150 mg/kg, po BID measured by caliper relative to control. Type of data set: functional. As to conditions: HCT-116, po, read-out: TGI.
Data set [8] deals with HCT-116. As to the kind of experiment: Antitumor activity against human HCT-116 cells xenografted in BALB/c nude nude mouse assessed as tumor growth inhibition at 16 mg/kg/day, ip QD administered for 16 consecutive days measured by caliper relative to control. The format is functional. As to conditions: HCT-116, ip, 384 h, time 16 day, read-out: TGI.
Data set [9] relates to HCT-116. As to the kind of experiment: Antitumor activity against human HCT-116 cells xenografted in BALB/c nude mouse assessed as inhibition of tumor growth at 16 mg/kg/day, ip BID administered for 21 days measured by caliper. Type of data set: functional, organism-based. As to conditions: time 21.0 day.
The nature of data set [10]: Toxicity in BALB/c nude mouse xenografted with human A549 cells assessed as morphological changes in kidney at 150 mg/kg, po bid by H&E staining based light microscopic analysis. The format is organism-based. Particulars: in vivo.
A short description of data set [11]: Half life in mouse liver microsomes. The format is ADME, Microsome.
In data set [12] the test system is HCT-116. Briefly: Antitumor activity against human HCT-116 cells xenografted in BALB/c nude mouse assessed as inhibition of tumor growth at 60 mg/kg, po BID administered for 21 days measured by caliper relative to control. As to conditions: HCT-116, po, 504 h, time 21 day, read-out: TGI. Type of data set: functional.
A short description of data set [13]: Toxicity in BALB/c nude mouse xenografted with human A549 cells assessed as morphological changes in liver at 150 mg/kg, po bid by H&E staining based light microscopic analysis. As to conditions: in vivo. Type of data set: organism-based.
For data set [14], the system named is HCT-116. Briefly: Antitumor activity against human HCT-116 cells xenografted in BALB/c nude mouse assessed as necrosis at 150 mg/kg, po bid by H&E staining based light microscopic analysis. The format is functional, organism-based.

By IC50 is commonly meant the midpoint of a concentration-inhibition curve. In general, solubility refers to how much of the substance goes into solution per volume. Usually half-life stands for how long it takes for the measured level to halve. Read a low half-life as fast loss.

DNA topoisomerase 2-alpha (Homo sapiens), sequence (P11388 whole entry, the tested form may be a part): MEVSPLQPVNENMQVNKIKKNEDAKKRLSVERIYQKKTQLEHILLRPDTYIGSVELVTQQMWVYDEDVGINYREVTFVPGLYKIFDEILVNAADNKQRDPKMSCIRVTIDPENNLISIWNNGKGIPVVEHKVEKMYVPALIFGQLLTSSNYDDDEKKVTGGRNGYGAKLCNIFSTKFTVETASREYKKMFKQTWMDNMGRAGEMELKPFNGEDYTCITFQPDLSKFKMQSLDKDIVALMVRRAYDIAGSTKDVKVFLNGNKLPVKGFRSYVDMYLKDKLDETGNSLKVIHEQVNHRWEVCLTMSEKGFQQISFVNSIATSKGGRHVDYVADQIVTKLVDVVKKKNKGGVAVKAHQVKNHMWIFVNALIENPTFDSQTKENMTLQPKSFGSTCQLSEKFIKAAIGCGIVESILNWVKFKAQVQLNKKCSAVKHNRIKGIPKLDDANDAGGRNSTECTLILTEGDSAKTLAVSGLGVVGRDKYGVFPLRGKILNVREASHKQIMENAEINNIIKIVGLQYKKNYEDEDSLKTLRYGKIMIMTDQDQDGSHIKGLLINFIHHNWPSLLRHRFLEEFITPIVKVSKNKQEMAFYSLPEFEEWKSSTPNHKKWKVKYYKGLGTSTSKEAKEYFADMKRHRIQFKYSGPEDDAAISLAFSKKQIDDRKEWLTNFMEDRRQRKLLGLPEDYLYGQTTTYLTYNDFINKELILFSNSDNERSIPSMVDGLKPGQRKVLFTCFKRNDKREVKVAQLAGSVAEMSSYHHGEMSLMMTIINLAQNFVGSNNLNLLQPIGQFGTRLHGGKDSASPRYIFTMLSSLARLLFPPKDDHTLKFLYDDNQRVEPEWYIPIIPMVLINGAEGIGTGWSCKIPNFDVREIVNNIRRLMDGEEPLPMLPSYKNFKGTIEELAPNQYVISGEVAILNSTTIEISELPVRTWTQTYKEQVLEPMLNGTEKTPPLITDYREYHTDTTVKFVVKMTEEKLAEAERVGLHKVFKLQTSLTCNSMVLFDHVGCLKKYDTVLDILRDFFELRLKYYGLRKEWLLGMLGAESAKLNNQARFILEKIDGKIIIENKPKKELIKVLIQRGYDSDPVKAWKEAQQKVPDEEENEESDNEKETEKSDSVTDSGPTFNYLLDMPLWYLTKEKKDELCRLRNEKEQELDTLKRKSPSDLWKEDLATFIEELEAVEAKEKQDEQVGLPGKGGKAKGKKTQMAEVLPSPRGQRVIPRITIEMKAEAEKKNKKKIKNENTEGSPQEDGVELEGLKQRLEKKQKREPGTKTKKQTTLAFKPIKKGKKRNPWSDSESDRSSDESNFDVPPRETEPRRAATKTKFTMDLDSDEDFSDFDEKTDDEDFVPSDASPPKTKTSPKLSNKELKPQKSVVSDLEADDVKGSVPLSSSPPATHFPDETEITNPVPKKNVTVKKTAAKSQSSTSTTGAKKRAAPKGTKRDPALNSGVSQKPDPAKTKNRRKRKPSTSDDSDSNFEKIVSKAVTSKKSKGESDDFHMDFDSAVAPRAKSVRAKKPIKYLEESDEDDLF

For `CN1c2ccccc2C(=O)N2CCc3c([nH]c4ccc(OC(=O)[C@@H](N)CO)cc34)C21` (stereo partly specified), the inhibition result in data set [1] and in data set [3] was “Active” each time. Also, the IC50 is 2.34 µM in the data set on MDA-MB-231, 2.61 µM with A549 and under 0.003 µM with HCT-116 [4]. In data set [2], the solubility stood at 24 µg/mL (≈ 59 µM).

Turning to `CN1c2ccccc2C(=O)N2CCc3c([nH]c4ccc(OC(=O)[C@@H]5CCCN5)cc34)C21` (stereo partly specified), the result in the data set with HCT-116 [5] was inactive. Further, the IC50 in the data set with MDA-MB-231 was 1.15 µM; with A549 it was 0.43 µM; in the data set with HCT-116 [4] it was 0.007 µM. In addition, the Activity result in data set [6] is reported as “Toxic”. For the same compound, in [2], the solubility was determined as 30 µg/mL (≈ 72 µM). For the same compound, the inhibition in vivo at 150 mg/kg in the data set with HCT-116 [7] came to 39%. In addition, the inhibition in vivo at 16 mg/kg/day in the data set on HCT-116 [8] worked out at 55%. Further, the inhibition entry in [3] was “Active”.

Consider `CN1c2ccccc2C(=O)N2CCc3c([nH]c4ccc(NS(C)(=O)=O)cc34)C21` (stereo unspecified), for which the IC50 with MDA-MB-231 was 0.19 µM; in the data set with A549 it was 0.72 µM; in the data set with HCT-116 [4] it was 0.46 µM. The solubility in data set [2] was 29 µg/mL (≈ 73.1 µM). In the data set on HCT-116 [9], the TGI entry was “inactive”. Further, the inhibition result in [3] is “Active”.

In the case of `CN1c2ccccc2C(=O)N2CCc3c([nH]c4ccc(N)cc34)C21` (stereo unspecified), the inhibition result in data set [1] was “inactive”. Further, the IC50 in the data set on MDA-MB-231 was found to be 1.8 µM; in the data set with A549, 4.8 µM; in the data set with HCT-116 [4], 0.39 µM. The same compound yielded a solubility in data set [2] of 10 µg/mL (≈ 31.4 µM). Besides, in the data set on HCT-116 [9], the TGI entry was “inactive”. Besides, in [3], the inhibition entry is “Active”.

On to `CN1c2ccccc2C(=O)N2CCc3c([nH]c4ccc(OC(=O)[C@@H](N)COCc5ccccc5)cc34)C21` (stereo partly specified), for which the inhibition result in [1] and in data set [3] was “Active” in each case. In addition, the IC50 with MDA-MB-231 is over 10 µM; in the data set with A549 it was over 10 µM; with HCT-116 [4] it was 0.021 µM. The compound also had a solubility in data set [2] of 12 µg/mL (≈ 24.2 µM).

`CN1c2ccccc2C(=O)N2CCc3c([nH]c4ccc(O)cc34)[C@H]21`: the Activity entry in [10] and in [13] was “Non-Toxic” each time. The same compound had a half-life in data set [11] of 14.3 min. The inhibition in vivo at 60 mg/kg with HCT-116 [12] was 24%. The IC50 in the data set with MDA-MB-231 was 0.094 µM; in the data set on A549 it was 0.28 µM; with HCT-116 [4], under 0.003 µM. In addition, the solubility in data set [2] was 11 µg/mL (≈ 34.4 µM). Moreover, the inhibition in vivo at 150 mg/kg in the data set with HCT-116 [7] was determined as 57%. In addition, in the data set on HCT-116 [14], the result was Active. In data set [3], the inhibition entry is “Active”.

Turning to `CN1c2ccccc2C(=O)N2CCc3c([nH]c4ccc(NC(=O)C(N)Cc5ccccc5)cc34)C21` (stereo unspecified), the half-maximal inhibitory concentration (IC50) was over 10 µM in the data set on MDA-MB-231, over 10 µM with A549 and 4.4 µM with HCT-116 [4]. Moreover, in [2], the solubility was determined as 16 µg/mL (≈ 34.4 µM). Further, the inhibition entry in [3] is “Active”.

For the compound `CC(C)[C@H](N)C(=O)Oc1ccc2[nH]c3c(c2c1)CCN1C(=O)c2ccccc2N(C)C31` (stereo partly specified), the inhibition entry in [1] and in [3] was “Active” each time. Also, the IC50 was 0.049 µM in the data set on MDA-MB-231, over 10 µM in the data set with A549 and under 0.003 µM with HCT-116 [4]. This compound also returned a solubility in [2] of 18 µg/mL (≈ 43 µM).

For the compound `CN1c2ccccc2C(=O)N2CCc3c([nH]c4ccc(NC(=O)CN)cc34)C21` (stereo unspecified), the IC50 with MDA-MB-231 is 1.2 µM; with A549, 3.7 µM; in the data set on HCT-116 [4], 1.6 µM. For the same compound, the solubility in data set [2] turned out to be 19 µg/mL (≈ 50.6 µM). For the same compound, the inhibition result in data set [3] was “Active”.

As for `CN1c2ccccc2C(=O)N2CCc3c([nH]c4ccc(OS(N)(=O)=O)cc34)C21` (stereo unspecified), the IC50 with MDA-MB-231 turned out to be 0.53 µM; in the data set on A549, 0.41 µM; with HCT-116 [4] it was 0.04 µM. In addition, the solubility in data set [2] was 37 µg/mL (≈ 92.9 µM). The inhibition result in data set [3] was “Active”.

For the compound `CN1c2ccccc2C(=O)N2CCc3c([nH]c4ccc(NC(=O)C(N)Cc5ccc(O)cc5)cc34)C21` (stereo unspecified), the IC50 with MDA-MB-231 was 0.55 µM; in the data set on A549, over 10 µM; in the data set with HCT-116 [4], 1.26 µM. This compound yielded a solubility in [2] of 12 µg/mL (≈ 24.9 µM). In addition, the inhibition entry in [3] is “Active”.

With `CC(C)CC(N)C(=O)Nc1ccc2[nH]c3c(c2c1)CCN1C(=O)c2ccccc2N(C)C31` (stereo unspecified), the IC50 in the data set on MDA-MB-231, with A549 and in the data set with HCT-116 [4] was over 10 µM throughout. In addition, the solubility in data set [2] is 14 µg/mL (≈ 32.4 µM). Further, the inhibition entry in [3] is “Active”.

In the case of `CN1c2ccccc2C(=O)N2CCc3c([nH]c4ccc(NC(=O)C5CCCN5)cc34)C21` (stereo unspecified), the IC50 in the data set on MDA-MB-231, in the data set with A549 and in the data set with HCT-116 [4] was over 10 µM each time. Moreover, the concentration in solution in data set [2] (solubility) came to 15 µg/mL (≈ 36.1 µM). In addition, in [3], the inhibition entry was “Active”.
